Data reported in the supplement of paper PMC5662764.
± gives the standard deviation of the averaged measurements.

Columns and labels:
Assay in all cases: normalised growth rate inhibition (GR value) relative to DMSO control (GR (1 = untreated growth, 0 = cytostasis, <0 = cytotoxic)); higher = less growth inhibition
Details in all cases: 72 h
MDAMB231 = system: MDAMB231
Description: (§1)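 Breast cancer cell lines (BT-20, Hs 578T, MCF 10A, MCF7, MDA-MB-231, SK-BR-3) were plated in 384-well plates and treated 24 h later with drugs at six concentrations (0.04-10 µM). Viable cells were counted by Hoechst/dead-cell-stain imaging at 0 and 72 h. Counts were normalised to DMSO controls on the same plate to give the relative cell count and the growth-rate inhibition (GR) value; technical plate triplicates were averaged for each biological replicate.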

MCF10A = system: MCF10A
Description: as §1

SKBR3 = system: SKBR3
Description: as §1

HS578T = system: HS578T
Description: as §1

MCF7 = system: MCF7
Description: as §1

BT20 = system: BT20
Description: as §1

Compound	normalised growth rate inhibition (MDAMB231; 0.04 µM)	normalised growth rate inhibition (MDAMB231; 0.12 µM)	normalised growth rate inhibition (MDAMB231; 0.37 µM)	normalised growth rate inhibition (MDAMB231; 1.11 µM)	normalised growth rate inhibition (MDAMB231; 3.33 µM)	normalised growth rate inhibition (MDAMB231; 10 µM)	normalised growth rate inhibition (MCF10A; 0.04 µM)	normalised growth rate inhibition (MCF10A; 0.12 µM)	normalised growth rate inhibition (MCF10A; 0.37 µM)	normalised growth rate inhibition (MCF10A; 1.11 µM)	normalised growth rate inhibition (MCF10A; 3.33 µM)	normalised growth rate inhibition (MCF10A; 10 µM)	normalised growth rate inhibition (SKBR3; 0.04 µM)	normalised growth rate inhibition (SKBR3; 0.12 µM)	normalised growth rate inhibition (SKBR3; 0.37 µM)	normalised growth rate inhibition (SKBR3; 1.11 µM)	normalised growth rate inhibition (SKBR3; 3.33 µM)	normalised growth rate inhibition (SKBR3; 10 µM)	normalised growth rate inhibition (HS578T; 0.04 µM)	normalised growth rate inhibition (HS578T; 0.12 µM)	normalised growth rate inhibition (HS578T; 0.37 µM)	normalised growth rate inhibition (HS578T; 1.11 µM)	normalised growth rate inhibition (HS578T; 3.33 µM)	normalised growth rate inhibition (HS578T; 10 µM)	normalised growth rate inhibition (MCF7; 0.04 µM)	normalised growth rate inhibition (MCF7; 0.12 µM)	normalised growth rate inhibition (MCF7; 0.37 µM)	normalised growth rate inhibition (MCF7; 1.11 µM)	normalised growth rate inhibition (MCF7; 3.33 µM)	normalised growth rate inhibition (MCF7; 10 µM)	normalised growth rate inhibition (BT20; 0.04 µM)	normalised growth rate inhibition (BT20; 0.12 µM)	normalised growth rate inhibition (BT20; 0.37 µM)	normalised growth rate inhibition (BT20; 1.11 µM)	normalised growth rate inhibition (BT20; 3.33 µM)	normalised growth rate inhibition (BT20; 10 µM)
COCC(=O)NC/C=C/c1ccc2ncnc(Nc3ccc(Oc4ccc(C)nc4)c(C)c3)c2c1	0.899 ± 0.13	0.896 ± 0.13	0.897 ± 0.12	0.912 ± 0.088	0.832 ± 0.15	0.812 ± 0.14	1.011 ± 0.0036	0.9964 ± 0.006	0.989 ± 0.014	0.984 ± 0.01	0.9849 ± 0.0016	0.9384 ± 0.003	0.508 ± 0.27	0.315 ± 0.22	0.188 ± 0.21	0.165 ± 0.12	0.0772 ± 0.1	-0.0874 ± 0.078	0.966 ± 0.018	0.975 ± 0.035	0.963 ± 0.026	0.956 ± 0.042	0.928 ± 0.025	0.857 ± 0.017	0.835 ± 0.1	0.803 ± 0.063	0.786 ± 0.025	0.796 ± 0.066	0.822 ± 0.084	0.499 ± 0.13	0.928 ± 0.0096	0.918 ± 0.026	0.892 ± 0.045	0.805 ± 0.032	0.767 ± 0.053	0.531 ± 0.052
OCCCNc1cc(-c2ccnc(Nc3cccc(Cl)c3)n2)ccn1	0.257 ± 0.49	-0.139 ± 0.17	-0.226 ± 0.15	-0.295 ± 0.15	-0.318 ± 0.15	-0.319 ± 0.13	0.263 ± 0.55	-0.205 ± 0.21	-0.228 ± 0.22	-0.24 ± 0.21	-0.242 ± 0.21	-0.231 ± 0.16	0.398 ± 0.76	0.11 ± 0.49	-0.227 ± 0.18	-0.278 ± 0.16	-0.344 ± 0.15	-0.414 ± 0.18	0.343 ± 0.56	-0.0634 ± 0.17	-0.144 ± 0.099	-0.162 ± 0.09	-0.188 ± 0.14	-0.228 ± 0.13	0.312 ± 0.68	-0.264 ± 0.073	-0.315 ± 0.074	-0.332 ± 0.09	-0.363 ± 0.09	-0.429 ± 0.097	0.32 ± 0.6	-0.203 ± 0.17	-0.291 ± 0.18	-0.323 ± 0.18	-0.37 ± 0.19	-0.43 ± 0.17
Cc1cnc(Nc2ccc(OCCN3CCCC3)cc2)nc1Nc1cccc(S(=O)(=O)NC(C)(C)C)c1	1.01 ± 0.074	0.934 ± 0.075	0.877 ± 0.11	0.643 ± 0.19	0.104 ± 0.19	-0.306 ± 0.15	0.989 ± 0.019	0.964 ± 0.018	0.938 ± 0.028	0.876 ± 0.041	0.512 ± 0.19	0.0536 ± 0.034	1.07 ± 0.082	0.997 ± 0.013	0.907 ± 0.023	0.766 ± 0.065	0.501 ± 0.11	-0.201 ± 0.095	1.01 ± 0.019	0.986 ± 0.019	0.887 ± 0.03	0.655 ± 0.066	0.258 ± 0.1	-0.184 ± 0.17	1.02 ± 0.06	0.96 ± 0.079	0.813 ± 0.11	0.545 ± 0.23	0.0996 ± 0.12	-0.272 ± 0.058	1.04 ± 0.029	0.969 ± 0.0097	0.934 ± 0.022	0.823 ± 0.031	0.629 ± 0.024	-0.141 ± 0.14
Cc1cc(C(=O)NOCCO)c(Nc2ccc(I)cc2F)n(C)c1=O [AZD-8330]	0.0852 ± 0.054	0.0627 ± 0.033	0.0584 ± 0.026	0.0698 ± 0.013	0.0774 ± 0.044	0.0933 ± 0.0085	0.0964 ± 0.11	0.0999 ± 0.1	0.113 ± 0.08	0.131 ± 0.068	0.142 ± 0.075	0.143 ± 0.1	0.497 ± 0.12	0.64 ± 0.045	0.708 ± 0.055	0.76 ± 0.064	0.778 ± 0.048	0.814 ± 0.076	0.244 ± 0.066	0.212 ± 0.072	0.217 ± 0.11	0.213 ± 0.11	0.217 ± 0.1	0.197 ± 0.11	0.331 ± 0.077	0.33 ± 0.043	0.342 ± 0.041	0.41 ± 0.049	0.405 ± 0.029	0.465 ± 0.025	0.685 ± 0.018	0.741 ± 0.034	0.748 ± 0.0083	0.739 ± 0.025	0.786 ± 0.01	0.803 ± 0.022
